Laboratory results taken from patent publication US20220132852A1, “PESTICIDALLY ACTIVE HETEROCYCLIC DERIVATIVES WITH SULFUR CONTAINING SUBSTITUENTS” (SYNGENTA CROP PROTECTION AG, priority 2019, published 2022).

Legend:
Format in all cases: in vivo
[1] = test system: Myzus persicae (Green Peach Aphid); experiment: whole plant or invertebrate; settings: foliar, 144 h, application rate 200 ppm, sprayed sunflower leaf discs, mixed ages, 6 days after infestation
Description: Example B4: Activity Against Myzus persicae (Green Peach Aphid) Feeding/Contact Activity
Sunflower leaf discs were placed onto agar in a 24-well microtiter plate and sprayed with aqueous test solutions prepared from 10′000 ppm DMSO stock solutions. After drying, the leaf discs were infested with an aphid population of mixed ages. The samples were assessed for mortality 6 days after infestation.

[2] = test system: Diabrotica balteata (Corn Root Worm); experiment: Example B1: Activity against Diabrotica balteata (corn root worm), sprayed maize sprouts; settings: 96 h, application rate 200 ppm, L2 larvae on sprayed maize sprouts, 4 days after infestation, read-out: effect in at least one of the two categories (mortality or growth inhibition)
Description: Example B1: Activity Against Diabrotica balteata (Corn Root Worm)
Maize sprouts placed onto an agar layer in 24-well microtiter plates were treated with aqueous test solutions prepared from 10′000 ppm DMSO stock solutions by spraying. After drying, the plates were infested with L2 larvae (6 to 10 per well). The samples were assessed for mortality and growth inhibition in comparison to untreated samples 4 days after infestation.

[3] = test system: Spodoptera littoralis (Egyptian Cotton Leaf Worm); experiment: Example B6: Activity against Spodoptera littoralis (Egyptian cotton leaf worm); settings: foliar, 72 h, application rate 200 ppm, L1 larvae on sprayed cotton leaf discs, 3 days after infestation, read-out: control (mortality, anti-feeding effect or growth inhibition)
Description: Example B6: Activity Against Spodoptera littoralis (Egyptian Cotton Leaf Worm)
Cotton leaf discs were placed onto agar in 24-well microtiter plates and sprayed with aqueous test solutions prepared from 10′000 ppm DMSO stock solutions. After drying the leaf discs were infested with five L1 larvae. The samples were assessed for mortality, anti-feeding effect, and growth inhibition in comparison to untreated samples 3 days after infestation. Control of Spodoptera littoralis by a test sample is given when at least one of the categories mortality, anti-feedant effect, and growth inhibition is higher than the untreated sample.

[4] = test system: Plutella xylostella (Diamond Back Moth); experiment: Example B3: Activity against Plutella xylostella (diamond back moth), artificial diet; settings: 192 h, application rate 200 ppm, eggs on artificial diet, 8 days after infestation, read-out: effect in at least one of the two categories (mortality or growth inhibition)
Description: Example B3: Activity Against Plutella xylostella (Diamond Back Moth)
24-well microtiter plates with artificial diet were treated with aqueous test solutions prepared from 10′000 ppm DMSO stock solutions by pipetting. After drying, Plutella eggs were pipetted through a plastic stencil onto a gel blotting paper and the plate was closed with it. The samples were assessed for mortality and growth inhibition in comparison to untreated samples 8 days after infestation. The following compounds gave an effect of at least 80% in at least one of the two categories (mortality or growth inhibition) at an application rate of 200 ppm: P2, P4, P5, P6, P8, P9, P10, P11, P12, P14, P15, P16, P17, P18, P19, P20, P21, P22, P23, P24, P25, P26, P27, P28, P29, P30, P31, P32, P33, P34, P35, P36, P38, P39, P40, P42, P45, P46, P47, P49, P50, P51, P52.

[5] = test system: Euschistus heros (Neotropical Brown Stink Bug); experiment: Example B2: Activity against Euschistus heros (neotropical brown stink bug), sprayed soybean leaves; settings: 120 h, application rate 200 ppm, N2 nymphs on sprayed soybean leaves, 5 days after infestation, read-out: effect in at least one of the two categories (mortality or growth inhibition)
Description: Example B2: Activity Against Euschistus heros (Neotropical Brown Stink Bug)
Soybean leaves on agar in 24-well microtiter plates were sprayed with aqueous test solutions prepared from 10′000 ppm DMSO stock solutions. After drying the leaves were infested with N2 nymphs. The samples were assessed for mortality and growth inhibition in comparison to untreated samples 5 days after infestation.

[6] = test system: Myzus persicae (Green Peach Aphid); experiment: Example B5: Activity against Myzus persicae (green peach aphid), systemic activity; settings: 144 h, test rate 24 ppm, roots of pea seedlings in test solution, mixed ages, 6 days
Description: Example B5: Activity Against Myzus persicae (Green Peach Aphid) Systemic Activity
Roots of pea seedlings infested with an aphid population of mixed ages were placed directly into aqueous test solutions prepared from 10′000 DMSO stock solutions. The samples were assessed for mortality 6 days after placing seedlings into test solutions.

CC[S+]([O-])c1cccnc1-c1cc2ccn(CC(F)(F)C(F)(F)F)c2cn1 (centres unmarked) [Compound P7, 5-(3-ethylsulfinyl-2-pyridyl)-1-(2,2,3,3,3-pentafluoropropyl) pyrrolo[2,3-c]pyridine]
≥ 80%: mortality at 200 ppm [1] | percent effect (mortality or growth inhibition) at 200 ppm [2]

CCS(=O)(=O)c1cccnc1-c1cc2ccn(CC(F)(F)C(F)(F)F)c2cn1 [Compound P8, 5-(3-ethylsulfonyl-2-pyridyl)-1-(2,2,3,3,3-pentafluoropropyl) pyrrolo[2,3-c]pyridine]
≥ 80%: percent control (mortality, anti-feedant effect or growth inhibition) at 200 ppm [3] | mortality at 200 ppm [1] | percent effect (mortality or growth inhibition) at 200 ppm [4] | percent effect (mortality or growth inhibition) at 200 ppm [5] | percent effect (mortality or growth inhibition) at 200 ppm [2]

CCS(=O)(=O)c1ccc(NC)nc1-c1cc2cnn(CC(F)(F)C(F)(F)F)c2cn1 [Compound P14, 5-ethylsulfonyl-N-methyl-6-[1-(2,2,3,3,3-pentafluoropropyl)pyrazolo[3,4-c]pyridin-5-yl]pyridin-2-amine]
≥ 80%: percent control (mortality, anti-feedant effect or growth inhibition) at 200 ppm [3] | mortality at 200 ppm [1] | percent effect (mortality or growth inhibition) at 200 ppm [4] | percent effect (mortality or growth inhibition) at 200 ppm [5] | percent effect (mortality or growth inhibition) at 200 ppm [2]

CCS(=O)(=O)c1ccc(N(C)C(=O)C2CC2)nc1-c1cc2cnn(CC(F)(F)C(F)(F)F)c2cn1 [Compound P15, N-[5-ethylsulfonyl-6-[1-(2,2,3,3,3-pentafluoropropyl)pyrazolo[3,4-c]pyridin-5-yl]-2-pyridyl]-N-methyl-cyclopropane-carboxamide]
≥ 80%: percent control (mortality, anti-feedant effect or growth inhibition) at 200 ppm [3] | mortality at 200 ppm [1] | percent effect (mortality or growth inhibition) at 200 ppm [4] | percent effect (mortality or growth inhibition) at 200 ppm [5] | percent effect (mortality or growth inhibition) at 200 ppm [2]

CCS(=O)(=O)c1cc(N(C)C(C)=O)cnc1-c1cc2ccn(CC(F)(F)C(F)(F)F)c2cn1 [Compound P16, N-[5-ethylsulfonyl-6-[1-(2,2,3,3,3-pentafluoropropyl)pyrrolo[2,3-c]pyridin-5-yl]-3-pyridyl]-N-methyl-acetamide]
≥ 80%: mortality at 24 ppm [6] | percent control (mortality, anti-feedant effect or growth inhibition) at 200 ppm [3] | mortality at 200 ppm [1] | percent effect (mortality or growth inhibition) at 200 ppm [4] | percent effect (mortality or growth inhibition) at 200 ppm [2]

CCS(=O)(=O)c1cc(Oc2ccccn2)cnc1-c1cc2ccn(CC(F)(F)C(F)(F)F)c2cn1 [Compound P17, 5-[3-ethylsulfonyl-5-(2-pyridyloxy)-2-pyridyl]-1-(2,2,3,3,3-pentafluoropropyl) pyrrolo[2,3-c]pyridine]
≥ 80%: percent control (mortality, anti-feedant effect or growth inhibition) at 200 ppm [3] | mortality at 200 ppm [1] | percent effect (mortality or growth inhibition) at 200 ppm [4] | percent effect (mortality or growth inhibition) at 200 ppm [5] | percent effect (mortality or growth inhibition) at 200 ppm [2]

CCS(=O)(=O)c1cc(Oc2ccccn2)cnc1-c1cc2cnn(CC(F)(F)C(F)(F)F)c2cn1 [Compound P21]
≥ 80%: percent control (mortality, anti-feedant effect or growth inhibition) at 200 ppm [3] | mortality at 200 ppm [1] | percent effect (mortality or growth inhibition) at 200 ppm [4] | percent effect (mortality or growth inhibition) at 200 ppm [5] | percent effect (mortality or growth inhibition) at 200 ppm [2]

CCS(=O)(=O)c1ccc(-n2cncn2)nc1-c1cc2cnn(CC(F)(F)C(F)(F)F)c2cn1 [Compound P22, 5-[3-ethylsulfonyl-6-(1,2,4-triazol-1-yl)-2-pyridyl]-1-(2,2,3,3,3-pentafluoropropyl) pyrazolo[3,4-c] pyridine]
≥ 80%: percent control (mortality, anti-feedant effect or growth inhibition) at 200 ppm [3] | mortality at 200 ppm [1] | percent effect (mortality or growth inhibition) at 200 ppm [4] | percent effect (mortality or growth inhibition) at 200 ppm [5] | percent effect (mortality or growth inhibition) at 200 ppm [2]

CCS(=O)(=O)c1cc(C2(C#N)CC2)cnc1-c1cc2ccn(CC(F)(F)C(F)(F)F)c2cn1 [Compound P23, 1-[5-ethylsulfonyl-6-[1-(2,2,3,3,3-pentafluoropropyl)pyrrolo[2,3-c]pyridin-5-yl]-3-pyridyl] cyclopropane-carbonitrile]
≥ 80%: percent control (mortality, anti-feedant effect or growth inhibition) at 200 ppm [3] | mortality at 200 ppm [1] | percent effect (mortality or growth inhibition) at 200 ppm [4] | percent effect (mortality or growth inhibition) at 200 ppm [5] | percent effect (mortality or growth inhibition) at 200 ppm [2]

CCS(=O)(=O)c1ccc(NC)nc1-c1cc2ccn(CC(F)(F)C(F)(F)F)c2cn1 [Compound P24, 5-ethylsulfonyl-N-methyl-6-[1-(2,2,3,3,3-pentafluoropropyl)pyrrolo[2,3-c]pyridin-5-yl]pyridin-2-amine]
≥ 80%: percent control (mortality, anti-feedant effect or growth inhibition) at 200 ppm [3] | mortality at 200 ppm [1] | percent effect (mortality or growth inhibition) at 200 ppm [4] | percent effect (mortality or growth inhibition) at 200 ppm [5] | percent effect (mortality or growth inhibition) at 200 ppm [2]

CCS(=O)(=O)c1ccc(N2CCOC2=O)nc1-c1cc2cnn(CC(F)(F)C(F)(F)F)c2cn1 [Compound P27, 3-[5-ethylsulfonyl-6-[1-(2,2,3,3,3-pentafluoropropyl)pyrazolo[3,4-c]pyridin-5-yl]-2-pyridyl]oxazolidin-2-one]
≥ 80%: percent control (mortality, anti-feedant effect or growth inhibition) at 200 ppm [3] | mortality at 200 ppm [1] | percent effect (mortality or growth inhibition) at 200 ppm [4]

CCS(=O)(=O)c1ccc(-n2cncn2)nc1-c1cc2ncn(CC(F)(F)C(F)(F)F)c2cn1 [Compound P32, 6-[3-ethylsulfonyl-6-(1,2,4-triazol-1-yl)-2-pyridyl]-3-(2,2,3,3,3-pentafluoropropyl)imidazo[4,5-c]pyridine]
≥ 80%: mortality at 200 ppm [1] | percent effect (mortality or growth inhibition) at 200 ppm [4] | percent effect (mortality or growth inhibition) at 200 ppm [5] | percent effect (mortality or growth inhibition) at 200 ppm [2]

CCS(=O)(=O)c1ccc(N(C)C(=O)NC)nc1-c1cc2cnn(CC(F)(F)C(F)(F)F)c2cn1 [Compound P33, 1-[5-ethylsulfonyl-6-[1-(2,2,3,3,3-pentafluoropropyl)pyrazolo[3,4-c]pyridin-5-yl]-2-pyridyl]-1,3-dimethyl-urea]
≥ 80%: percent control (mortality, anti-feedant effect or growth inhibition) at 200 ppm [3] | mortality at 200 ppm [1] | percent effect (mortality or growth inhibition) at 200 ppm [4] | percent effect (mortality or growth inhibition) at 200 ppm [5] | percent effect (mortality or growth inhibition) at 200 ppm [2]

CCSc1cccnc1-c1cc2ncn(CC(F)(F)C(F)(F)F)c2cn1 [Compound P44, 6-(3-ethylsulfanyl-2-pyridyl)-3-(2,2,3,3,3-pentafluoropropyl) imidazo[4,5-c]pyridine]
≥ 80%: mortality at 24 ppm [6] | mortality at 200 ppm [1]

CCS(=O)(=O)c1cc(-n2ccc(Cl)n2)cnc1-c1cc2cnn(CC(F)(F)C(F)(F)F)c2cn1 [Compound P46, 5-[5-(3-chloropyrazol-1-yl)-3-ethylsulfonyl-2-pyridyl]-1-(2,2,3,3,3-pentafluoropropyl) pyrazolo[3,4-c]pyridine]
≥ 80%: percent control (mortality, anti-feedant effect or growth inhibition) at 200 ppm [3] | mortality at 200 ppm [1] | percent effect (mortality or growth inhibition) at 200 ppm [4] | percent effect (mortality or growth inhibition) at 200 ppm [5] | percent effect (mortality or growth inhibition) at 200 ppm [2]

CCS(=O)(=O)c1cc(C2CC2)cnc1-c1cc2ncn(CC(F)(F)C(F)(F)F)c2cn1 [Compound P52, 6-(5-cyclopropyl-3-ethylsulfonyl-2-pyridyl)-3-(2,2,3,3,3-pentafluoropropyl) imidazo[4,5-c]pyridine]
≥ 80%: mortality at 24 ppm [6] | percent control (mortality, anti-feedant effect or growth inhibition) at 200 ppm [3] | percent effect (mortality or growth inhibition) at 200 ppm [4] | percent effect (mortality or growth inhibition) at 200 ppm [5] | percent effect (mortality or growth inhibition) at 200 ppm [2]
